Data taken from patent publication US20070149593A1 (Alcon, Inc., priority 2005, published 2007).

Test system: FGFR
Experiment: Kinase inhibition in cell-free enzymatic assay, FGFR
Type: biochemical
Conditions: 1 mM ATP

Cc1ccc(F)c(NC(=O)Nc2ccc(-c3cccc4[nH]nc(N)c34)cc2)c1 [RTKi, N-[4-(3-amino-1H-indazol-4-yl)phenyl]-N′-(2-fluoro-5-methylphenyl)urea]
IC50: > 12.5 µM
